Common to all, as to type: biochemical
The target in one assay is JAK2 (Homo sapiens, UniProt O60674). In words: JAK2 inhibition assay (radioactive enzyme assay, as for JAK3). To be noted: average Ki if more than one value determined. The method in brief:
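Both kinases: poly(Glu)4Tyr substrate in 100 mM HEPES pH 7.4, 10 mM MgCl2, 1 mM DTT. Run 20 min at 25° C, TCA stop, filter-bound ³³P counted, Ki(app) fitted after background subtraction. JAK3: final [γ-³³P]ATP 5 μM, enzyme added as 2 nM solution. JAK2: final poly(Glu)4Tyr 15 μM, final ATP 12 μM.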

For the next assay, the target named is ROCK (Homo sapiens, UniProt Q13464). In words: ROCK inhibition assay, standard radioactive enzyme assay ("33P"). The procedure: Some compounds were screened for their ability to inhibit ROCK using a standard radioactive enzyme assay. Assays were carried out in a solution containing 100 mM HEPES (pH 7.5), 10 mM MgCl2, 25 mM NaCl, 2 mM DTT, and 1.5% DMSO. Final substrate concentrations in the assay were 13 μM [γ-^33P] ATP (25 mCi ^33P ATP/mmol ATP, Perkin Elmer, Cambridge, Mass./Sigma Chemicals, St Louis, Mo.) and 27 μM Myelin Basic Protein (MBP). Final enzyme concentration in the assay was 5 nM ROCK. Assays were carried out at room temperature. 1.5 μl of DMSO stock containing serial dilutions of the compound of the present invention (concentrations ranging from 10 μM to 2.6 nM) was placed in a 96 well plate. 50 μl of Solution 1 (100 mM HEPES (pH 7.5), 10 mM MgCl2, […]) was added to the plate. The reaction was initiated by addition of 50 μl of Solution 2 (100 mM HEPES (pH 7.5), 10 mM MgCl2, 4 mM DTT, […] and 10 nM ROCK). After 2 hours the reaction was quenched with 50 μL of 30% trichloroacetic acid (TCA, Fisher) containing 9 mM ATP. Transfer of 140 μL of the quenched reaction to a glass fiber filter plate (Corning, Cat. No. 3511) was followed by washing 3 times with 5% TCA. 50 μL of Optima Gold scintillation fluid (Perkin Elmer) was added and the plates were counted on a Top Count (Perkin Elmer). After removing mean background values for all of the data points the data was fit using Prism software to obtain a Ki(app).
ROCK, sequence (Q13464 whole entry): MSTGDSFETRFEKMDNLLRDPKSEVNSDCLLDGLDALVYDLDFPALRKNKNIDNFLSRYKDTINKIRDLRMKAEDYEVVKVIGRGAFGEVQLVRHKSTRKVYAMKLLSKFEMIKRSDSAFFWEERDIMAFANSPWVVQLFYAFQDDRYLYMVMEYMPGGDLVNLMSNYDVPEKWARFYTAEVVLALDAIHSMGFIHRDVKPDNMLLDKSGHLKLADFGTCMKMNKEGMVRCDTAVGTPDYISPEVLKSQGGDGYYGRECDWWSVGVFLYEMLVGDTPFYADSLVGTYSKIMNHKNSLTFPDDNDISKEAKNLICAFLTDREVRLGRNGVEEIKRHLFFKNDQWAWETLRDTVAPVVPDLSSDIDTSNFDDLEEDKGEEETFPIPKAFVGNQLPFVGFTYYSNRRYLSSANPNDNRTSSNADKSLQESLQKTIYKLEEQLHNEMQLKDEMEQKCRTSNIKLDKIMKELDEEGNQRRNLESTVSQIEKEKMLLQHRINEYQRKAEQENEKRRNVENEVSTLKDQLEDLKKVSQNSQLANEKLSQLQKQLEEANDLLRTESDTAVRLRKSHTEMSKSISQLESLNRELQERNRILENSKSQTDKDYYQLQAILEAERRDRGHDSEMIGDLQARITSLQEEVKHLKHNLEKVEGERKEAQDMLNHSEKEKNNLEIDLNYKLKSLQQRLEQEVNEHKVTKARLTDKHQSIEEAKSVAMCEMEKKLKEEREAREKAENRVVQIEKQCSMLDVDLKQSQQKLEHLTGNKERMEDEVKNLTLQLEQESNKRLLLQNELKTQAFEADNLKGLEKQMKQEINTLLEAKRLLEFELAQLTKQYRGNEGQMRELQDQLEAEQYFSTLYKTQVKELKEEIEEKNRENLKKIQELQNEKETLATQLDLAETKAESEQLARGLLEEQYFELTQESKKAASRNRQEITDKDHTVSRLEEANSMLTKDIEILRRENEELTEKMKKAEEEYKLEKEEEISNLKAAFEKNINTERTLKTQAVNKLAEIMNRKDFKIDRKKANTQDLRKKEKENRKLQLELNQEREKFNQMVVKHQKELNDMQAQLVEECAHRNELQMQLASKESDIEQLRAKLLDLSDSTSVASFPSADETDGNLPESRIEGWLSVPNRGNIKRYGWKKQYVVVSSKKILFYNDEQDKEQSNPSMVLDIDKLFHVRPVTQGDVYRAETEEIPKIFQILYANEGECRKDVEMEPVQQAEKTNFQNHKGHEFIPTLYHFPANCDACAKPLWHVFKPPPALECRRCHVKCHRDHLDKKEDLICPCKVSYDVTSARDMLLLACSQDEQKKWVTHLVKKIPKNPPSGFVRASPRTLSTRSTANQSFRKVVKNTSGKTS

Assay [1] has as its target T1, full length Aurora-A (AA 1-403) (Homo sapiens, UniProt O14965).
T1 construct: full length Aurora-A (AA 1-403)
T1 sequence (O14965 1-403): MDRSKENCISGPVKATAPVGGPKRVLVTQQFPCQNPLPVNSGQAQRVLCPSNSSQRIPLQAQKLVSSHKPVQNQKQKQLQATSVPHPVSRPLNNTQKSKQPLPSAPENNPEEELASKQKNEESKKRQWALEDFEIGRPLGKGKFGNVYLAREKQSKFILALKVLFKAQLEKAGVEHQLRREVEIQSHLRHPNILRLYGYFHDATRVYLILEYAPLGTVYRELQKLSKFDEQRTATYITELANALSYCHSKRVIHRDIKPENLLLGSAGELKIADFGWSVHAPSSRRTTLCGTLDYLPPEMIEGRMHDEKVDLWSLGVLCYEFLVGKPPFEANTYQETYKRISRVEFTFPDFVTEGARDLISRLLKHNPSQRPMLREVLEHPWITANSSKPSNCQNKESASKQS
In words: Aurora-A inhibition assay, standard coupled enzyme system. To be noted: average Ki if more than one value determined.

Another assay concerns the target Aurora-B (Homo sapiens, UniProt Q96GD4). The assay can be described thus: Aurora-B inhibition assay, radioactive assay. To be noted: average Ki if more than one value determined. The essentials: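 Radiometric [γ-33P]ATP kinase assay run as described for JAK3/ROCK but with Aurora-B protein; 33P incorporation into substrate measured by filter capture and scintillation counting after TCA quench. Background-subtracted data fit to give Ki(app).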

The target in the next assay is T2, Aurora-C (Homo sapiens, UniProt Q9UQB9).
T2 sequence (Q9UQB9 1-309): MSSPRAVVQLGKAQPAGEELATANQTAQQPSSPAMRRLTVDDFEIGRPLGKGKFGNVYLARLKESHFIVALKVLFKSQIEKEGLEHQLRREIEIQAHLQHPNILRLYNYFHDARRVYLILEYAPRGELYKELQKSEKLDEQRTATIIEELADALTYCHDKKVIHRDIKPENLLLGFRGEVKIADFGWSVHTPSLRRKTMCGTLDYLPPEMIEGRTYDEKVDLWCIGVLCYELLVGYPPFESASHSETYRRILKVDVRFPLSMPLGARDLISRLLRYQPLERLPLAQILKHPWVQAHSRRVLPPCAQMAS
In words: Aurora-C inhibition assay, coupled enzyme system as for Aurora-A. To be noted: average Ki if more than one value determined. The method in brief: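 Coupled PK/LDH NADH-depletion assay with 35 nM enzyme, 200 μM ATP and 800 μM LRRASLG peptide in 100 mM HEPES pH 7.5, 10 mM MgCl2, 25 mM NaCl, 1 mM DTT, 3% DMSO at 30 °C. Compound (0.002-30 μM) was preincubated 10 min before ATP start; rates over 10 min gave Ki by nonlinear regression. Aurora-C run the same way.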

The structures appear in SMILES notation. Some results are limits rather than exact numbers.

JAK2, sequence (O60674 whole entry, species assumed): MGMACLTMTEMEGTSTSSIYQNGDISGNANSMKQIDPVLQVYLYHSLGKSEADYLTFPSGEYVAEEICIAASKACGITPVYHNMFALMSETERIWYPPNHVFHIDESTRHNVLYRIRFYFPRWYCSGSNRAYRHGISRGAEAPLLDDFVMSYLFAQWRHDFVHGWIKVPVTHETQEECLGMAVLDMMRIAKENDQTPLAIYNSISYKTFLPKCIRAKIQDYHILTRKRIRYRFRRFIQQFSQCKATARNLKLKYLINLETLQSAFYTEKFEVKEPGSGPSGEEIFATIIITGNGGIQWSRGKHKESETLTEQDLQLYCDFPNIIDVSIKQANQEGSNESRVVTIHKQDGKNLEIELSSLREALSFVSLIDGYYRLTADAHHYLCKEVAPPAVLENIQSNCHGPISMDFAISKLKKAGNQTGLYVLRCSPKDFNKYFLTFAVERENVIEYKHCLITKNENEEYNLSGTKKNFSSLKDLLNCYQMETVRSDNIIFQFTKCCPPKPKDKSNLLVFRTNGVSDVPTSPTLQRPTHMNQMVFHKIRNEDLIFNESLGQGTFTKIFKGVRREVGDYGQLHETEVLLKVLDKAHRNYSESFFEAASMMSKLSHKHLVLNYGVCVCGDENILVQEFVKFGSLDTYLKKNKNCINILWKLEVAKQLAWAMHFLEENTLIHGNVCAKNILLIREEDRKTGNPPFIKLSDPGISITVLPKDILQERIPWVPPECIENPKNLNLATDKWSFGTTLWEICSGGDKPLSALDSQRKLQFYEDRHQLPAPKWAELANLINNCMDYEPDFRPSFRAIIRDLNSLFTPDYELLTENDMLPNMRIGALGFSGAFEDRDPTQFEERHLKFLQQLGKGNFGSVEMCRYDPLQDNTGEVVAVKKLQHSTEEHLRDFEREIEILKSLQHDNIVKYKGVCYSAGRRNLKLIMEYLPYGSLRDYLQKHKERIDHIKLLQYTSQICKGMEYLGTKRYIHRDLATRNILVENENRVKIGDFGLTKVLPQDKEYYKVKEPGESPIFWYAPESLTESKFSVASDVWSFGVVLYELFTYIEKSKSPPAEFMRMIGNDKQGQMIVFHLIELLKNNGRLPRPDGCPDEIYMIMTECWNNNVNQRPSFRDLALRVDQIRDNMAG
Aurora-B, sequence (Q96GD4 whole entry): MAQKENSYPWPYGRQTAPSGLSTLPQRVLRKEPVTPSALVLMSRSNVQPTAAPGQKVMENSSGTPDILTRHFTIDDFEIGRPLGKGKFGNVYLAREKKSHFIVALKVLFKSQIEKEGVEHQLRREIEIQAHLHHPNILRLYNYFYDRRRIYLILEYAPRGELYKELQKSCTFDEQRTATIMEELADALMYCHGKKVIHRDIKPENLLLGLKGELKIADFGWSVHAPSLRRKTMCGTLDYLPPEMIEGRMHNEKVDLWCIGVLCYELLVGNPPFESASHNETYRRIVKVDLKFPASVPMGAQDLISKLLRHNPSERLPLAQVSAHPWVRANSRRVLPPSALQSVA

Consider `CCOC(=O)N1CCCN(c2nccc(-c3c[nH]c4ncc(OC)cc34)n2)CC1` [Compound 33], for which the Ki (on JAK2; at ROCK; in assay [1]) was less than 500 nM each time.

On to `CC(=O)N1[C@H](C)CN(c2cccc(-c3c[nH]c4ncc(Cl)cc34)n2)C[C@@H]1C` [Compound 19], for which the Ki (at JAK2; on ROCK; in assay [1]) was less than 500 nM each time.

On to `COC(=O)c1cnc2[nH]cc(-c3cccc(N4C[C@@H](C)N(C(C)=O)[C@@H](C)C4)n3)c2c1` [Compound 35], for which the Ki (on JAK2; on ROCK; in assay [1]) was less than 500 nM in each case.

Turning to `C[C@H](Nc1cccc(-c2c[nH]c3ncc(Cl)cc23)n1)c1ccc(F)cc1` [Compound 395], the Ki (at JAK2; in assay [1]; on Aurora-B) was less than 500 nM in each case.

Take `C[C@H](Nc1nc(-c2c[nH]c3ncc(Cl)cc23)ncc1F)C(=O)NCC(F)(F)F` [Compound 369]: the Ki (in assay [1]; on Aurora-B; at Aurora-C) was less than 500 nM throughout.

With `COc1cnc2[nH]cc(-c3cccc(N4C[C@@H](C)N(C(C)=O)[C@@H](C)C4)n3)c2c1` [Compound 18], the Ki (in general, the dissociation constant of the complex between target and ligand, obtained from inhibition or displacement) was less than 500 nM at JAK2, 500 to 5000 nM at ROCK and 500 to 5000 nM in assay [1].

The values above are taken from patent US8501446B2 (Vertex Pharmaceuticals Incorporated, priority 2004, dated 2013).
